Assay results reported in EP1857556A1, “Genetically engineered Pseudomonas fluorescens strains as biosensor for trehalose detection and quantification in a sample” (INSTITUT NATIONAL DE LA RECHERCHE AGRONOMIQUE (INRA), priority 2006, dated 2007).

Assays:
Pyt 5 = experiment: visual assessment of β-galactosidase activity (blue color intensity) on X-gal buffered CAA medium, mutant Pyt 5; format: cell-based, P. fluorescens ATCC 17400; design: β-galactosidase activities: key: -: no induction; (+): faintish induction; +: weak induction; ++: highly induction; +++: extremely strong induction
Description: (§1) So, Pyt 6 was chosen as a good candidate to develop the biosensor test in the further study.
(§2) Table 1. Influence of added sugars in buffered (pH 7) CAA medium for the β-galactosidase activities of P. fluorescens ATCC 17400 derived mutants on visual assessment of blue color intensity

Pyt 6 [1] = experiment: visual assessment of β-galactosidase activity (blue color intensity) on X-gal buffered CAA medium, mutant Pyt 6; on β-galactosidase activities: key: -: no induction; (+): faintish induction; +: weak induction; ++: highly induction; +++: extremely strong induction; format: cell-based, P. fluorescens ATCC 17400
Description: as §1, §2

Pyt 6 [2] = experiment: semi-quantitative high-throughput X-Gal colorimetric trehalose assay with Pyt 6; format: cell-based, Pseudomonas fluorescens; details: semi-quantitative method; for visible induction: Pyt 6, sugars (2 %), X-Gal, 18 hours at 27°C
Experimental: For instance, the Inventors have developed a semi-quantitative method of assaying trehalose in a sample. Said method comprises the steps consisting of: • a) contacting the sample with a suspension of Pyt 6, precultured to exponential growth, at OD 600 nm = about 0.1, with a ratio about 1:20 (preferably 10 µl of the sample, optionally diluted, are contacted with 190 µl of the Pyt 6 suspension atOD600nm=0.1); • b) adding about 2 µl X-Gal (20 mg/ml); • c) incubation the mixture during 16-20 hours, preferably18 hours, at 27°C (preferably with agitation at 150 rpm), • c) observing and/or measuring the blue coloration elicited by X-Gal processing; and • d) comparing the blue coloration observed in step c) with that elicited by a standard of trehalose contacted with a suspension of Pyt 6, precultured to exponential growth, at OD 600 nm = about 0.1, with a ratio 1:10 (preferably 10 µl of the standards are contacted with 190 µl of the Pyt 6 suspension at OD 600 nm = 0.1) and X-Gal (2 µl, 20 mg/ml); whereby if the blue coloration observed in step c) is above that of observed with the standard, then the concentration of trehalose in the sample is above trehalose concentration in the standard.
From the knowledge derived from the use of the qualitative and quantitative methods, the inventors have developed a semi-quantitative method that allows a high throughput pre-screening of the presence of trehalose in liquid samples. The invention helps also to the check quickly the quality of controls without trehalose before applying the quantitative method. The semi-quantitative method combines a direct colorimetric observation with the use of the chromogenic X-Gal and the conditions of Pyt 6 culture derived from the quantitative method. The detection limit is 0.5 mM trehalose in 10 µl of the tested liquid sample (biological or other extracts).
This method was carried out according to the following steps : • preculture of Pyt 6 to exponential growth in the BCAA medium at 27°C, • distribution of 190 µl of this Pyt 6 suspension at OD 600 nm = 0.1 in wells of a 96 well microtiter plate , • incorporation of 2 µl X-Gal (20 mg/ml) in each well, • incorporation of 10 µl of a standard range of trehalose (0.1 mM to 2 mM trehalose) or 10 µl of tested samples or 10 µl of pure water or culture medium for the blank control, • incubation during 18 hours at 150 rpm at 27°C, • comparative observation of the intensity of the blue color in wells, • the lower detection limit is 0.5 mM trehalose in the tested sample.

[3] = effect of boiling on trehalose, read out with Pyt 6 luminescence (Figure 8); format: physicochemical; details: boiling of the samples, 5 min at 100°C (Figure 8)
Experimental: The extract derived from 1 g of Ggt mycelium cultured for 7 days were tested. For the positive control, 10 ng of purified β-gal and 1 mM trehalose solution with Pyt 6 were assessed. Results shown are mean values from 3 repeated counting. Error bars indicate standard deviations.
The fungal extraction was performed as follows. Mycelium are pre-cultured (Gaeumannomyces. graminis (Ggt): 5 days on PDA (Potato Dextrose 39 g/L, agar 20 g/L); Laccaria bicolor. (Lb) 10 days on P5 (0.25 g Di NH4 tartrate, 0.5 g KH2PO4, 0.25 g MgSO4 7 H2O, 2.5 g maltose D+, 10 g glucose D+, 0.5 ml thiamine-HCl (100 mg/L), 0.5 ml Kanieltra oligoelement solution (100 ml/L), 10 g agar, 480 ml H2O, adjusted pH to 5.5 with HCl or NaOH). Growing mycelium plugs are explanted to BCAA agar (as defined above) with cellophane membrane or the glass bead/membrane system with liquid BCAA. The cellophane membranes were previously boiled in ultra-pure water + EDTA (372 mg.l-1) during 15 minutes, washed abundantly with ultra-pure water and sterilised by autoclaving twice. […]
Boiling of the fungal extracts is expected to denature endogenous β-gal and therefore avoid interference with trehalose measurement. […] Additionally, it was observed that when Ggt mycelium extract (diluted to 1/10) was boiled, no endogenous β-galactosidase activity was ever detected (Figure 8).

With `OC[C@H]1O[C@H](O[C@H]2[C@H](O)[C@@H](O)C(O)O[C@@H]2CO)[C@H](O)[C@@H](O)[C@@H]1O` (mixture of isomers) [maltose] the β-galactosidase activities (Pyt 5; Pyt 5, 0.2 % maltose added to buffered (pH 7) CAA medium) was “++”, the β-galactosidase activities (Pyt 5; Pyt 5, 0.5% maltose added to buffered (pH 7) CAA medium) was “++” and the treA induction (Pyt 5; Pyt 5, visual assessment on X-gal medium) was “weak induction”. The β-galactosidase activities (Pyt 6 [1]; Pyt 6, 0.2 % maltose added to buffered (pH 7) CAA medium) was “-”, the β-galactosidase activities (Pyt 6 [1]; Pyt 6, 0.5% maltose added to buffered (pH 7) CAA medium) was “-” and the treA expression (Pyt 6 [1]; strain as received under the label Pyt 6 (storage tubes inverted)) was “triggered”. The visible induction (Pyt 6 [2]) was “no visible induction”.
With `O=C[C@@H](O)[C@H](O)[C@H](O)CO` [arabinose] the visible induction (Pyt 6 [2]) was “no visible induction”.
With `O=C(CO)[C@@H](O)[C@H](O)[C@H](O)CO` [fructose] the visible induction (Pyt 6 [2]) was “no visible induction”.
With `O=C[C@H](O)[C@@H](O)[C@@H](O)[C@H](O)CO` [galactose] the visible induction (Pyt 6 [2]) was “no visible induction”.
In the case of `OCC(O)CO` [glycerol], the visible induction (Pyt 6 [2]) is reported as “no visible induction”.
For `OC[C@H]1O[C@H](O[C@H]2O[C@H](CO)[C@@H](O)[C@H](O)[C@H]2O)[C@H](O)[C@@H](O)[C@@H]1O` [trehalose, Trehalose], the β-galactosidase activities (Pyt 5; Pyt 5, 10 mM trehalose added to buffered (pH 7) CAA medium) was “+++”, the β-galactosidase activities (Pyt 5; Pyt 5, 10mM trehalose together with 0.2 % glucose) was “+++” and the β-galactosidase activities (Pyt 5; Pyt 5, 10 mM trehalose together with 0.2 % maltose) was “+++”. For the same molecule, the β-galactosidase activities (Pyt 5; Pyt 5, 10 mM trehalose together with 0.5% maltose) was “+++”, the β-galactosidase activities (Pyt 5; Pyt 5, 10 mM trehalose together with 2 % glucose) was “+++” and the treA expression (Pyt 5; strain as received under the label Pyt 5 (storage tubes inverted)) was “specifically induced”. For the same molecule, the β-galactosidase activities (Pyt 6 [1]; Pyt 6, 10 mM trehalose added to buffered (pH 7) CAA medium) was “+++”, the β-galactosidase activities (Pyt 6 [1]; Pyt 6, 10mM trehalose together with 0.2 % glucose) was “+++” and the β-galactosidase activities (Pyt 6 [1]; Pyt 6, 10 mM trehalose together with 0.2 % maltose) was “+++”. For the same molecule, the β-galactosidase activities (Pyt 6 [1]; Pyt 6, 10 mM trehalose together with 0.5% maltose) was “+++”, the β-galactosidase activities (Pyt 6 [1]; Pyt 6, 10 mM trehalose together with 2 % glucose) was “+++” and the treA induction (Pyt 6 [1]; Pyt 6, trehalose 10^-3 M, visual assessment on X-gal medium) was “treA induction”. For the same molecule, the detection limit (Pyt 6 [2]; trehalose in 10 µl of the tested liquid sample) was 0.5 mM and the stability to boiling [3] was “not affected”.
